Reference: patent US20100143507A1, “CARBOXYLIC ACID INHIBITORS OF HISTONE DEACETYLASE, GABA TRANSAMINASE AND SODIUM CHANNEL” (AUSPEX PHARMACEUTICALS, INC., priority 2008, published 2010)

Assay: In vitro liver microsomal stability assay
Format: in vitro ADME
Details: 1 mg per mL liver microsome protein, NADPH-generating system, 1 μM test compound, 37° C., 0-60 minutes, LC/MS/MS
Procedure: Liver microsomal stability assays were conducted with 1 mg per mL liver microsome protein with an NADPH-generating system (2.2 mM NADPH, 25.6 mM glucose 6-phosphate, 6 units per mL glucose 6-phosphate dehydrogenase and 3.3 mM magnesium chloride) in 2% sodium bicarbonate. Test compounds were prepared as solutions in 20% acetonitrile-water and added to the assay mixture (final assay concentration 1 μM) and incubated at 37° C. Final concentration of acetonitrile in the assay should be <1%. Aliquots (50 μL) were taken out at times 0, 15, 30, 45, and 60 minutes, and diluted with ice cold acetonitrile (200 μL) to stop the reactions. Samples were centrifuged at 12,000 RPM for 10 minutes to precipitate proteins. Supernatants were transferred to microcentrifuge tubes and stored for LC/MS/MS analysis of the degradation half-life of the test compounds. […] In certain embodiments, the increase in degradation half-life is at least 5%; at least 10%; or at least 15%.

[2H]C([2H])([2H])C([2H])([2H])C([2H])([2H])C([2H])(C(=O)O)C([2H])([2H])C([2H])([2H])C([2H])([2H])[2H] [valproic acid-d15]
degradation half-life as compared to the non-isotopically enriched drug: increased degradation half-life
